Consider one molecule from PMC13047053, “Crystal structure of human INPP5K with an allosteric inhibitor reveals the structural basis for species specific potency” (Scientific Reports, 2026).

pIC50: −log10 of the molar value. “Also recorded” adds a separate entry of the source. Bounds are passed on as bounds.

Test in all cases: Inorganic phosphate detection assay for phosphatase inhibition
Type in all cases: biochemical

Experiment [1] has as its target T1, rat INPP5K (Rattus norvegicus, UniProt A0A0G2K2Z2).
T1 construct: rat INPP5K (aa 1–446, UniProt ID: Q9R0B6); FLAG (N); made in house; host or cells: Expi293 cells (pcDNA3.4, transient)
T1 sequence (A0A0G2K2Z2 1-446): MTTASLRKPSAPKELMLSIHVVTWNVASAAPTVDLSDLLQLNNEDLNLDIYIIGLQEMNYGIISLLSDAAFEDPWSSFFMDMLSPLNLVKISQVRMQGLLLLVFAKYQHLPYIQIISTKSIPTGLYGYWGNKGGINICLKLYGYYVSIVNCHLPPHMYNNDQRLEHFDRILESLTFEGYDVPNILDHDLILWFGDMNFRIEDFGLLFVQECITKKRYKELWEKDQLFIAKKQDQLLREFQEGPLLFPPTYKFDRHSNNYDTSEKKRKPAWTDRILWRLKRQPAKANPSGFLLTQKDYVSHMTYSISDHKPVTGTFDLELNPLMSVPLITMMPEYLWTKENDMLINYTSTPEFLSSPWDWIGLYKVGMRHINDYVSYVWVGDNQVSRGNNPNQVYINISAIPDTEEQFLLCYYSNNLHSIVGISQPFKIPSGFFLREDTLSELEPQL
The text has this: (§1) The protein purification is described in detail elsewhere. Briefly, full-length human INPP5K (amino acids 1–448, UniProt ID: Q9BT40), rat INPP5K (aa 1–446, UniProt ID: Q9R0B6), mouse INPP5K (aa 1–468, UniProt ID: Q8C5L6), hamster INPP5K (aa 1–453, UniProt ID: G3HTF6), guinea pig INPP5K (aa 1–473, UniProt ID: H0V8T7) containing an N-terminal FLAG-tag, full-length human SHIP2 (aa 1–1 258) containing a C-terminal FLAG-tag, and full-length human PIPP (amino acids 1–1 006) containing an N-terminal His8-tag were all cloned into the pcDNA3.4 expression vector and transiently expressed in Expi293 cells (Thermo Fisher Scientific). The PH domain of human TAPP1 (amino acids 180–404) containing an N-terminal GST-tag was expressed in a pGEX6P1 expression vector (GE Healthcare) in E. coli strain BL21 ((Merck KGaA, Darmstadt, Germany)), following IPTG induction at 37 °C for 5 h. All the FLAG-tagged INPP5Ks and hSHIP2 were purified using affinity columns containing DDDDK-tagged protein purification gel (MBL, Medical & Biological Laboratories Co., Ltd., Tokyo, Japan), followed by size-exclusion chromatography with Superdex 200 columns (GE Healthcare). His8-tagged hPIPP was purified using Ni–NTA Superflow (Qiagen) and Superdex 200 columns. The GST-tagged hTAPP1 domain was purified using a Glutathione Sepharose 4B (GE Healthcare) and Superdex 200 columns. The purity of the protein obtained was evaluated using SDS-PAGE.
(§2) The release of inorganic phosphate was measured using a PiPer Phosphate Assay Kit (Thermo Fisher Scientific), according to the manufacturer’s instructions, but with some modifications. Enzyme reactions were performed in a final volume of 10 µL per well in a 384-well nonbinding black plates (Greiner Bio-One International, GmbH, Kremsmünster, Austria). The reaction mixtures containing 20 µM diC8-PI(3,4,5)P₃ and each enzyme (human INPP5K, mouse INPP5K, rat INPP5K, hamster INPP5K, guinea pig INPP5K, human SHIP2, or human PIPP) in reaction buffer (50 mM Tris–HCl pH 7.0, 150 mM NaCl, 7.5 mM MgCl₂, 0.03% Igepal CA-630, 0.03% gelatin), with or without various concentrations of inhibitor, were incubated for 20 min at room temperature. The reactions were then stopped and detection reactions were initiated by adding 5 µL of detection mix 1 (60 mM EDTA, 12 U/mL maltose phosphorylase, and 0.6 mM maltose in 100 mM Tris–HCl pH 8.0). After incubation for 60 min at room temperature, 5 µL of detection mix 2 (8 U/mL glucose oxidase, 0.8 U/mL HRP, and 100 µM Amplex Red in 100 mM Tris–HCl pH 8.0) was added, and the mixture was incubated for a further 30 min at room temperature in the dark. The fluorescence generated was measured using an Envision plate reader at 531/590 nm (excitation/emission), and the percentage inhibition was calculated as described above.

Experiment [2] deals with T2, human PIPP (Homo sapiens, UniProt Q15735).
T2 construct: full-length human PIPP (amino acids 1–1 006) containing an N-terminal His8-tag; His8 (N); made in house; host or cells: Expi293 cells (pcDNA3.4, transient)
T2 sequence (Q15735 1-1006): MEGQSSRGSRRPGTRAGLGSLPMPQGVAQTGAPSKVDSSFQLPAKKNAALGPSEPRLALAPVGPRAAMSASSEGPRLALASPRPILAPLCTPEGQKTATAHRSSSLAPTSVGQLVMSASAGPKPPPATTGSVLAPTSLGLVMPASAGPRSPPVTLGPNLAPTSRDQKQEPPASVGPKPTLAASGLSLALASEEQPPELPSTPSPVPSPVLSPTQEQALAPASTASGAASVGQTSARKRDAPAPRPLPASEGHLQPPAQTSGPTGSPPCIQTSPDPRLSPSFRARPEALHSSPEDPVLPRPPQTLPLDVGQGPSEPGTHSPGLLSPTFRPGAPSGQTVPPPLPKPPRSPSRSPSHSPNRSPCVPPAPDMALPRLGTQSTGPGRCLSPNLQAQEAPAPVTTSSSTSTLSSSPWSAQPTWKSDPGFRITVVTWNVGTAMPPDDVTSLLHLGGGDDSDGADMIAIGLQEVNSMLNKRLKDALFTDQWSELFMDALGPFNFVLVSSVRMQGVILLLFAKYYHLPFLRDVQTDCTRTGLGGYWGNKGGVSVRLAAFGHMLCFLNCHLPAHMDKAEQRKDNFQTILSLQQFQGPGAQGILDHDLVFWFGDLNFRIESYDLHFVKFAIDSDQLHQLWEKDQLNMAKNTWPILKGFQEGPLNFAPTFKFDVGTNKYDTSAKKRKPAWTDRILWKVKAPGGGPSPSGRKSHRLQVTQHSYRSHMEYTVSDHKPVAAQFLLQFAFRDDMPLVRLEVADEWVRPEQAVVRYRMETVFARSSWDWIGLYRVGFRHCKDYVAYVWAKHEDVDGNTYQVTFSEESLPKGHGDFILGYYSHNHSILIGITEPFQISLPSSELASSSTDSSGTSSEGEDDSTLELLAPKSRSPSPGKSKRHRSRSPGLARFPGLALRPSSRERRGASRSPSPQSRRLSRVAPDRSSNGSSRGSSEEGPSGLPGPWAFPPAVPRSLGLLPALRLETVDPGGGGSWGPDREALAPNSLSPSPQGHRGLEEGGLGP
As to conditions: 20 µM diC8-PI(3,4,5)P3, 20 min.
From the text: as §1, §2

In experiment [3] the target is guinea pig INPP5K (Cavia porcellus, UniProt H0V8T7). As to conditions: 20 µM diC8-PI(3,4,5)P3, 20 min.
From the text: as §1, §2

Chain of guinea pig INPP5K (H0V8T7 entry or part of it): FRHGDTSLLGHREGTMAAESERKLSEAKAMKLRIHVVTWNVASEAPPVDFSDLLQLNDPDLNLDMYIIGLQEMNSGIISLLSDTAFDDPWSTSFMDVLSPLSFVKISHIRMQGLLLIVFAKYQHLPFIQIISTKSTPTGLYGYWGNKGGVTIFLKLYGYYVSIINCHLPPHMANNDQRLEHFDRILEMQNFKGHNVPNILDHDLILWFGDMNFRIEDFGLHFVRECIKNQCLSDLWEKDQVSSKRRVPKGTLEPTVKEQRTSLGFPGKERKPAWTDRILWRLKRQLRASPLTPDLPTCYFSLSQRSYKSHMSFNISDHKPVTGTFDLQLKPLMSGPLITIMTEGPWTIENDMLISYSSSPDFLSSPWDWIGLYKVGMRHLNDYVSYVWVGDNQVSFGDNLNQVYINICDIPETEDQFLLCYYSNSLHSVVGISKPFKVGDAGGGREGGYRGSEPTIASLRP

In general, pIC50 refers to the negative decadic logarithm of the IC50, by convention in mol/L. For `CC(C)c1sc(NC(=O)c2ccccc2)c(C(=O)O)c1-c1ccccc1` [CPD-1], the pIC50 in experiment [1] (inorganic phosphate detection assay, 20 µM diC8-PI(3,4,5)P3, 20 min) was less than 4.00; in experiment [2] it was less than 4.00; in experiment [3], 4.23. Moreover, the “inhibition of rat INPP5K (in words)” value in experiment [1] (result in words) is “no inhibition; also recorded: inactive”.
